In US20130115181A1, “AQUEOUS PHARMACEUTICAL SYSTEM FOR THE ADMINISTRATION OF DRUGS TO THE NAILS” (UNIVERSIDADE DE SANTIAGO DE COMPOSTELA, priority 2010, published 2013):

Key:
[1] = Penetration of ciclopirox olamine through calf hoof, Franz-Chien cells; format: in vitro ADME; settings: solutions in the absence of N-acetylcysteine
Protocol: Thermosensitive systems used in penetration studies were prepared as it follows:
1.—Dispersion of the Pluronic F127NF to 20% in cold water with magnetic stirring until complete dissolution.
2.- Ciclopirox olamine was incorporated in adequate quantities for concentrations close to saturation (see FIG. 3). […]
In the formulations prepared with partially methylated β-cyclodextrin, it was incorporated into the system at a concentration of 10% prior to the dissolution of triamcinolone acetonide, allowing soluble increasing doses of the drug (see FIG. 3).
Penetration studies were performed with cylindrical thin slices of calf hoof membrane (0.8-1 mm). The bovine hoof samples were placed using two Teflon adapters between the donor and acceptor compartment of vertical Franz-Chien penetration cells. In the receptor compartment, phosphate buffer (pH 7.4) was added and maintained at 37° C. 1 g of the thermosensitive systems was placed into the […]. […] The medium extracted was replaced with the same amount of buffer. The results were normalized by the diffusion surface and the thickness of the calf hoof slides used.

[2] = Ciclopirox olamine solubility in Pluronic F127NF / cyclodextrin systems; format: physicochemical; settings: systems with Pluronic F127NF, HPB or MBCD; 25° C.
Protocol: Dispersions of Pluronic F127NF (0, 10 and 15%) were prepared incorporating hydroxypropyl-β-cyclodextrin or partially methylated β-cyclodextrin at concentrations of 0, 0.5% and 10%. Ciclopirox olamine was added in amounts that far exceeded its aqueous solubility and was stirred at 25° C. for a week. The amount of dissolved ciclopirox was determined spectrophotometrically after filtering the dispersions. Pluronic F127NF dispersions containing 10% of hydroxypropyl-β-cyclodextrin or partially methylated β-cyclodextrin (5% or 10%) and N-acetylcysteine (5-10%) or urea (10-20%) has been studied.

[3] = Triamcinolone acetonide solubility in Pluronic F127NF / cyclodextrin systems; format: physicochemical; settings: systems with Pluronic F127NF, HPB or MBCD; 25° C.
Protocol: Aqueous dispersions of Pluronic F127NF containing a 0.10 and 15%, were prepared by stirring the polymer in water at 4° C. to study the incorporation of the drug. Hydroxypropyl-β-cyclodextrin or partially methylated β-cyclodextrin at concentrations of 0, 0.5% and 10% were also incorporated. Triamcinolone acetonide was added in amounts that far exceeded its aqueous solubility and was stirred at 25° C. for a week. The amount of dissolved triamcinolone was determined spectrophotometrically after filtering the dispersions through a membrane filter of 0.45 micron pore size.

[4] = Penetration of triamcinolone acetonide through calf hoof, Franz-Chien cells; format: in vitro ADME; settings: solutions in the absence of N-acetylcysteine
Source text: For the preparation of thermosensitive systems used in penetration studies through the nail we proceeded as it follows:
1.—Dispersion of the Pluronic F127NF at 10 or 20% (depending on the formulation) in cold water with magnetic stirring until complete dissolution.
2.—Incorporation of triamcinolone acetonide in quantities for concentrations close to saturation (see FIG. 1). […]
In the formulations containing partially methylated β-cyclodextrin, it was incorporated into the system at concentrations of 10% prior to the dissolution of triamcinolone acetonide in order to increase aqueous concentration of the drug (see FIG. 1).
To perform the penetration studies, cylindrical thin slices of calf hoof membrane (0.8-1 mm) were used. The bovine hoof samples were placed using two Teflon adapters between the donor and acceptor compartment of vertical Franz-Chien penetration cells. In the receptor compartment, phosphate buffer (pH 7.4) was added and maintained at 37° C. 1 g of the thermosensitive systems was placed into the […]. Samples from receptor solution were collected at scheduled time, determining the concentration of triamcinolone acetonide by HPLC. The results were normalized by the diffusion surface and the thickness of the calf hoof slides used.

## Cc1cc(C2CCCCC2)n(O)c(=O)c1 [Ciclopirox olamine]
[1]
  Diffusion and penetration of ciclopirox olamine through calf hoof: did not detect drug diffusion and penetration
[2]
  Effect of N-acetylcysteine or urea on ciclopirox olamine solubility: significantly influences the solubility

## CC1(C)O[C@@H]2C[C@H]3[C@@H]4CCC5=CC(=O)C=C[C@]5(C)[C@@]4(F)[C@@H](O)C[C@]3(C)[C@]2(C(=O)CO)O1 [Triamcinolone acetonide]
[3]
  Effect of N-acetylcysteine on triamcinolone acetonide solubility: did not alter the solubility
[4]
  Penetration of triamcinolone acetonide through calf hoof: did not detect the penetration
